Assay [1] has as its target T1, alcohol dehydrogenase (ADH) (Saccharomyces cerevisiae, UniProt P00330).
T1 construct: 10 μl of ADH from Bakers Yeast; host or cells: baker's yeast
T1 sequence (P00330 1-348): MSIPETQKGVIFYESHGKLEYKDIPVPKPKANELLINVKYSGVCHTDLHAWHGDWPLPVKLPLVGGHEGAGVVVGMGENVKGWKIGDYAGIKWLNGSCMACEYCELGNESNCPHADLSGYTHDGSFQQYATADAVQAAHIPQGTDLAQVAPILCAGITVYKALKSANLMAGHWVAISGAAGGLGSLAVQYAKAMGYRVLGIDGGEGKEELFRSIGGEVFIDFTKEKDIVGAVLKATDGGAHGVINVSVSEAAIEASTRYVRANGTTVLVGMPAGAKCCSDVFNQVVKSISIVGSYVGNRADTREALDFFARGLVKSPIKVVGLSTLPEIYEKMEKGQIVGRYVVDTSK
The assay is described as follows: ADH kinetic assay, spectrophotometric reduction of NAD+ at 340 nm. The class given is biochemical, Bakers Yeast. The protocol: For ADH analysis, the compounds were screened using a kinetic protocol that spectrophotometrically evaluates reduction of NAD+.
(§1) Stock solutions of each of the reagents were prepared in the following concentrations. Dilutions of the stock solutions were prepared prior to running the assay in the concentrations indicated below.
The ADH reaction was monitored at 340 nm prior to and after addition of the inhibitor to detect background reaction with the inhibitor. Solutions of 100 μl of the inhibitors in DMSO were prepared to provide a final DMSO concentration of 5% of the total assay volume. These solutions were incubated for 6 minutes at 25° C. in a 990 μl of a solution containing 0.1 M HEPES, pH 8.0, 80 μM NAD+, and 130 mM of ethanol. The reaction was then initiated with 10 μl of ADH from Bakers Yeast ([…]; 1:400 dilution of 1.0 mg/ml). After the enzyme was added, the solution was mixed for 20 seconds, and the reaction was run for 10 minutes. After a 50 second lag, the samples were read in a Cary spectrophotometer at 340 nm. Reading of the samples was continued until 300 seconds. Cuvette #1 contained the control reaction (no inhibitor), and cuvette #2 contained the positive control reaction in which Cibacron Blue at 15.5 μM was substituted for inhibitor to yield 50 to 60% inhibition. The substrate was kept at a level at least 10 times the Km. The final concentration of […] was about 2.5 mM.
Where only a simple read was desired, as in the case of NAD+ concentration determination, 13 μl (10 M stock) of ethanol was used to drive the reaction, and 10 μl of pure enzyme (1 mg/ml) was used. NAD+was soluble at 2 mM, which allowed the concentration determination step to be skipped. In this situation, the procedure was as follows. All of the ingredients except for the enzyme were mixed together. The solution was mixed well and the absorbance at 340 nm read. The enzyme was added and read again at OD 340 after the absorbance stopped changing, generally 10 to 15 minutes after the enzyme was added.

Assay [2] deals with glyceraldehyde-3-phosphate dehydrogenase (GAPDH) (Escherichia coli, UniProt P0A9B2). The assay is described as follows: GAPDH kinetic assay, spectrophotometric reduction of NAD+ at 340 nm. The class given is biochemical, E. coli. The protocol:
For GAPDH analysis, the compounds were screened using a kinetic protocol that spectrophotometrically evaluates reduction of NAD+.
as §1
The GAPDH reaction was monitored at 340 nm prior to and after addition of the inhibitor to detect background reaction with the inhibitor. Solutions of 100 μl of the inhibitors incubated for 6 minutes at 25° C. in a 990 μl of a solution containing 125 mM triethanolamine, pH 7.5, 145 μM glyceraldehyde 3-phosphate (GAP), 0.211 mM NAD, 5 mM sodium arsenate, and 3 mM β-metcaptoethanol (2-BME). The reaction was then initiated with 10 gl of E. coli GAPDH (1:200 dilution of 1.0 mg/ml). After the enzyme was added, the solution was mixed for 20 seconds, and the reaction was run for 10 minutes. After a 50 second lag, the samples were read in a Cary spectrophotometer at 340 nm. Reading of the samples was continued until 300 seconds. The final concentration of DMSO in a cuvette was about 5% of the total assay volume. Cuvette #1 contained the control reaction (no inhibitor).
GAP for use in this experiment was deprotected from the diethyl acetal in the following manner. Water was boiled in recrystallizing dish. […]

For assay [3], the target named is Human Aldose Reductase (AR) (Homo sapiens, UniProt P15121). The assay is described as follows: AR kinetic assay, spectrophotometric measurement of enzyme activity at 340 nm. The class given is biochemical. Particulars: Example 13 oxidoreductase panel (FIG. 7). The procedure: For AR analysis, the compounds were screened using a kinetic protocol that spectrophotometrically measures enzyme activity.
as §1
The AR reaction was monitored at 340 nm prior to and after addition of the inhibitor to detect background reaction with the inhibitor. Solutions of 100 μl of the inhibitors in DMSO were prepared to provide a final DMSO concentration of 5% of the total assay volume. These solutions were incubated for 5 minutes at 25° C. in a 990 μl of a solution containing 100 mM potassium phosphate, pH 7.5, 0.3 M ammonium sulfate, 1.0 mM ethylenediaminetetraacetic acid (EDTA), 3.8 μM B-Nicotinamide adenine dinucleotide phosphate (NADPH), 171 μM DL-glyceraldehyde and 0.1 mM DL-dithiothreitol. The reaction was then initiated with 10 μl of Human Aldose Reductase (1:5 dilution of 0.55 mg/ml). After the enzyme was added, the solution was mixed for 20 seconds, and the reaction was run for 10 minutes. After a 50 second lag, the samples were read in a Cary spectrophotometer at 340 nm. Reading of the samples was continued until 300 seconds. The final DMSO concentration in the cuvette was 5%. […]

Read-outs that look alike come from different tables or passages of the source.

Here are results for two molecules from patent US20030104473A1, “Common ligand mimics: benzimidazoles” (priority 2001, published 2003).

As usually defined, the IC50 is the concentration needed to halve the response being measured.

glyceraldehyde-3-phosphate dehydrogenase (GAPDH), sequence (P0A9B2 whole entry): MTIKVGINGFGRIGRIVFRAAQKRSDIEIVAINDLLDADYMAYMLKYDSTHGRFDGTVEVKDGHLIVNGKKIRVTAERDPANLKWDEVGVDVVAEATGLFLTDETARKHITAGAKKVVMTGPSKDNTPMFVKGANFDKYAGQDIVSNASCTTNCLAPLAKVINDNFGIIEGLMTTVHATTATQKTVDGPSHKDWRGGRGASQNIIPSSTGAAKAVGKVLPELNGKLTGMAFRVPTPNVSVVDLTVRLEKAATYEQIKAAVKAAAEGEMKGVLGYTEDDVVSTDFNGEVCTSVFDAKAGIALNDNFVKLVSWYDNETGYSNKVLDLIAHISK

`O=C(O)c1ccc(-c2ccc(-c3nc4ccccc4[nH]3)o2)cc1` [compound 6b, 4-[5-(1H-benzoimidazol-2-yl)-furan-2-yl] benzoic acid]: the half-maximal inhibitory concentration (IC50) was 49 µM in assay [1]; more than 60 µM in assay [2] (Example 13 oxidoreductase panel (FIG. 7), read-out: IC50 for GAPDH); 35 µM in assay [3].

For the molecule `O=C(O)c1ccc(-c2ccc(-c3nc4cc([N+](=O)[O-])ccc4[nH]3)o2)cc1` [compound 6d, 4-[5-(5-nitro-1H-benzoimidazol-2-yl)-furan-2-yl]-benzoic acid], the IC50 in assay [1] and in assay [2] was more than 150 µM throughout.
